Experimental data published in US20230218663A1, “COMPOSITIONS AND METHODS FOR TREATING A SARS-COV-2 INFECTION” (priority 2020, published 2023).

How the values were obtained:
SARS-CoV-2 [1] = assay: Viral load reduction assay in VeroE6 cells; assay type: cell-based
Protocol: Viral load reduction assay was performed on VeroE6 and Caco2 cells, as described previously with modifications^41. Supernatant samples from the infected cells (0.1 MOI) were harvested at 48 hours post-infection (hpi) for qRT-PCR analysis of virus replication. Briefly, 100 μL of viral supernatant were lyzed with 400 μL of AVL buffer and then extracted for total RNA with the QIAamp viral RNA mini kit (Qiagen, Hilden, Germany). Real-time one-step qRT-PCR was used for quantitation of SARS-CoV-2 viral load using the QuantiNova Probe RT-PCR kit (Qiagen) with a LightCycler 480 Real-Time PCR System (Roche) as previously described^15. Each […] mixture contained 10 μL of 2×QuantiNova Probe RT-PCR Master Mix, 1.2 μL of RNase-free water, 0.2 μL of QuantiNova Probe RT-Mix, 1.6 μL each of 10 μM forward and reverse primer, 0.4 μL of 10 μM probe, and 5 μL of extracted RNA as the template. Reactions were incubated at 45° C. for 10 min for reverse transcription, 95° C. for 5 min for denaturation, followed by 45 cycles of 95° C. for 5 s and 55° C. for 30 s. Signal detection and measurement were taken in each cycle after the annealing step. The cycling profile ended with a cooling step at 40° C. for 30 s. The primers and probe sequences are against the RNA-dependent RNA polymerase/Helicase (RdRP/Hel) gene region of SARS-Cov-2 previously described^42.
Cell culture supernatants were collected at 48 hour-post-infection (hpi) for viral RNA extraction and quantitative reverse transcription-polymerase chain reaction (qRT-PCR) as previously described with modifications(13, 14). The primers and probe sequences were against the RNA-dependent RNA polymerase/Helicase (RdRP/Hel) gene region of SARS-CoV-2: forward primer: 5′-[…]-3′ (SEQ ID NO:6); reverse primer: 5′-[…]-3′(SEQ ID NO:7); specific probe: 5′-[…]-IABkFQ-3′(SEQ ID NO:8). The viral load reduction assay experiments were performed in triplicate and repeated twice for confirmation.

[2] = Chemical stability of bismuth drugs at different pH
Caco2 cells = assay: Cell viability assay (CellTiterGlo), Caco2; assay type: cell-based, human; details: 48 hrs incubation; concentration based on metal content; read-out: CC50 Caco2
Protocol: The CellTiterGlo® luminescent assay (Promega Corporation, Madison, Wis., USA) was performed to detect the cytotoxicity of the selected compounds as previously described^39. Briefly, VeroE6 cells (4×10^4 cells per well) and Caco2 cells (4×10^4 cells per well) were incubated with different concentrations of the individual compound in 96-well plates for 48 hrs, followed by the addition of the substrate and measurement of luminance 10 min later. Ridaura and Au(PEt3)Cl were dissolved in DMSO, and the final percentage of DMSO was kept at 1% in culture medium.

SARS-CoV-2 [3] = details: Caco-2

Colloidal Bismuth Subcitrate [De-Nol]
maximal viral load reduction in VeroE6 cell culture supernatant (SARS-CoV-2 [1]): ~4 logs | maximal viral load reduction in the VeroE6 cell lysate (SARS-CoV-2 [1]): ~2 logs | bismuth found in the supernatant ([2]; pH 1.2, after 1 hour, without NAC): less than 10% | bismuth remaining in the supernatant ([2]; pH 1.2, in the presence of 3 mol eq. NAC): approximately 100% | bismuth remaining in the supernatant ([2]; pH 1.2, in the presence of 10 mol eq. NAC): approximately 100% | hydrolysis at pH 9.2 in the presence of NAC ([2]; pH 9.2): prevent hydrolysis | CC50 (Caco2 cells): 3.74 ± 0.125 mM | bismuth intestinal permeation within 60 min (Caco-2 cell monolayer): moderately elevated | maximal viral load reduction in Caco2 cell culture supernatant (SARS-CoV-2 [3]): ~4 logs | maximal viral load reduction in the Caco2 cell lysate (SARS-CoV-2 [3]): ~3 logs
